{
  "source": "patent US20250051243A1",
  "about": "“Nano Bio-Carrier with Plant Additives Combined with Chemical Fertilizers” (Sabic Agri-Nutrients Company, priority 2021, published 2025)",
  "tested_on": "Maize",
  "assay": "Maize trials: soil and foliar application of nano chitosan fertilizer product on maize crops (greenhouse pots)",
  "format": "in vivo",
  "description": "Maize trials. Assays were also performed to evaluate soil and foliar application of nano chitosan fertilizer product on maize crops. These trials were also performed to investigate the effect of different concentrations of bulk and nano chitosan on the growth and productivity of maize. The maize trials included a further formulation for nano-chitosan urea, namely a urea-chitosan nanocomposite. The urea-chitosan nanocomposite was prepared by evaporating or freeze-drying the nano-chitosan fertilizer aqueous solution. The current urea-chitosan nanocomposite was prepared by evaporating an aqueous solution of nanochitosan urea at 50° C. for two days in an oven. Nanocomposite morphology of the urea-chitosan nanocomposite was confirmed based on SEM and compositional analysis shown in FIGS. 6A-6E and TEM shown in FIGS. 7A-7E. For SEM and compositional analysis on solid form, samples were studied in Zeiss EVO 15 after coating samples with gold to avoid charging. The powder was mounted on an aluminum stub. Based on the EDS analysis, it appeared that chitosan and urea was present in this powder. For the TEM analysis, a small amount of the sample was taken in a small vial, diluted with DM water and sonicated for 15 mins. One to two drops of this solution was taken on a formvar grid, the excess liquid was blotted on a filter paper, and TEM analysis was carried out Tecnai F20 at representative magnifications shown in FIGS. A thin grey film in the background with very small sized darker particles were apparent. An occasional larger sized film was also seen. Because urea dissolves in water, the morphology seen in the images of this sample was primarily urea-chitosan nanocomposite (nanoparticles). The process of drying in an oven over two days ensured steady removal of water without disturbing the nano-morphology of the urea-chitosan nanocomposite. Table 6 presents the trial details for the soil and foliar application of nano chitosan fertilizer product on maize crops. [table] Control samples were T1 (urea granules, at different time); T2 (urea and zinc, commercially available); and T13 (urea powder). As shown, Table 7A also presents the varying concentrations for the samples. […] Each rectangle represented a section or table in the greenhouse and the respective Trial sample(s) shown thereon. […] FIG. 13 is a graphical representation of the number of leaves apparent at 30 days after sowing (DAS) and at 60 DAS for samples T1 through T23. […] The amount of chlorophyll present in the leaf for samples T1 through T23 was measured using a soil plant analysis development (SPAD) chlorophyll meter and is shown in FIG. 14. […]",
  "data": [
    {"smiles": "NC(N)=O", "note": "[T13, urea]", "values": [
      {"measurement": "SPAD READING 30 DAS", "setting": "leaf chlorophyll, SPAD chlorophyll meter, 30 DAS", "result": 34.50},
      {"measurement": "SPAD READING 60 DAS", "setting": "leaf chlorophyll, SPAD chlorophyll meter, 60 DAS", "result": 33.33},
      {"measurement": "Cob Yield", "setting": "maize", "result": 7.33, "unit": "g"},
      {"measurement": "Grain Yield", "setting": "maize", "result": 0.00, "unit": "g"},
      {"measurement": "Plant Height 30 DAS", "setting": "maize, 30 DAS", "result": 124.33, "unit": "centimeters"},
      {"measurement": "Plant height 60 DAS", "setting": "maize, 60 DAS", "result": 159.00, "unit": "centimeters"},
      {"measurement": "No. of leaves 30 DAS", "setting": "maize, 30 days after sowing, soil or foliar application as per treatment", "result": 8.67},
      {"measurement": "No. of leaves 60 DAS", "setting": "maize, 60 days after sowing, soil or foliar application as per treatment", "result": 12.67},
      {"measurement": "corn cob development (grains within the cob)", "setting": "observation by greenhouse section A, B, C", "result": "failed to show grains"}
    ]}
  ]
}
